Test results published in patent US6159963A, “Method for treating substance abuse” (Eli Lilly and Company, priority 1996, dated 2000).

Legend:
patients = test: double-blind multicenter clinical trial, olanzapine versus placebo; format: in vivo, human; settings: patients randomized to olanzapine or placebo
Excerpt: A double-blind multicenter clinical trial was designed to assess the safety and efficacy of olanzapine. Patients were randomized to olanzapine or placebo.

[1] = tested on: muscarinic cholinergic receptor; test: pharmacological studies, muscarinic cholinergic receptor activity
5-HT1C receptor = test: pharmacological studies, 5-HT1C receptor activity

Cc1cc2c(s1)Nc1ccccc1N=C2N1CCN(C)CC1 [olanzapine, 2-methyl-4-(4-methyl-1-piperazinyl)-10H-thieno[2,3-b][1,5]benzodiazepine]
usefulness for treatment of addictive substance withdrawal (clinical observations) (patients): can be useful for the treatment of addictive substance withdrawal
muscarinic cholinergic receptor activity [1]: has muscarinic cholinergic receptor activity
activity at the 5-HT1C receptor (5-HT1C receptor): active
